Laboratory results taken from patent publication US20140288074A1, “FUNGICIDAL PYRAZOLES” (E I DU PONT DE NEMOURS AND COMPANY, priority 2013, published 2014).

Legend:
[1] = system: Septoria tritici; experiment: Test D: preventive spray on wheat seedlings, wheat leaf blotch, visual disease rating; format: in vivo; conditions: for pest or weed control at 200 ppm / Test D rating (disease control): 200 ppm test suspension, Septoria tritici inoculated the day after spraying
Method in brief: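 Wheat seedlings sprayed to run-off with 200 ppm suspension (≈800 g/ha; asterisked ratings 40 ppm), then inoculated with S. tritici spores next day. Held 48 h saturated at 24 °C, then 19 days at 20 °C. Visual rating 0–100% disease control versus controls, triplicate mean.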

[2] = system: Blumeria graminis f. sp. tritici; experiment: Test G: preventive spray on wheat seedlings, wheat powdery mildew, visual disease rating;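 as to all read-outs here: rated 8 days after spore dust inoculation at 20 °C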; format: in vivo; conditions: for pest or weed control at 200 ppm / Test G rating (disease control): 200 ppm test suspension, Blumeria graminis f. sp. tritici inoculated the day after spraying
Method in brief: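 Wheat seedlings sprayed to run-off with 200 ppm suspension (about 800 g/ha; asterisked values 40 ppm) in acetone/water with 250 ppm Trem 014. Inoculated next day with B. graminis spore dust and held at 20 °C for 8 days. Visual rating, 0–100 % disease control versus controls; triplicate, averaged.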

SMILES	pest or weed control at 200 ppm ([1]; Zymoseptoria tritici, 504 h) [%]	pest or weed control at 200 ppm ([2]; 192 h) [%]	Test D rating (disease control) [1] [%]	Test G rating (disease control) [2] [%]	also measured
Cc1nn(C)c(C(O)C(C)C)c1-c1ccc(F)cc1Cl (stereo not drawn) [Compound 2, 4-(2-chloro-4-fluorophenyl)-1,3-dimethyl-α-(1-methylethyl)-1H-pyrazole-5-methanol]	100	97	–	–	–
CCCNc1c(-c2ccc(Cl)cc2Cl)c(C)nn1C [Compound 3]	–	–	92	0	–
Cc1nn(C)c(NCC(C)C)c1-c1ccc(Cl)cc1Cl [Compound 4, 4-(2,4-dichlorophenyl)-1,3-dimethyl-N-(2-methylpropyl)-1H-pyrazol-5-amine]	99	93	–	–	–
CCCCNc1c(-c2ccc(Cl)cc2Cl)c(C)nn1C [Compound 5, N-butyl-4-(2,4-dichlorophenyl)-1,3-dimethyl-1H-pyrazol-5-amine]	88	58	–	–	–
Cc1nn(C)c(NC2CCCCC2)c1-c1ccc(F)cc1F [Compound 6, N-cyclohexyl-4-(2,4-difluorophenyl)-1,3-dimethyl-1H-pyrazol-5-amine]	100	91	–	–	–
CCC(C)C(O)c1c(-c2ccc(F)cc2Cl)c(C)nn1C (stereo not drawn) [Compound 8, 4-(2-chloro-4-fluorophenyl)-1,3-dimethyl-α-(1-methylpropyl)-1H-pyrazole-5-methanol]	100	99	–	–	–
Cc1nn(C)c(C(O)C(C)(C)CCC#N)c1-c1c(F)cccc1F (centres unmarked) [Compound 9]	–	–	98	53	–
Cc1nn(C)c(C(O)C2=CCCCC2)c1-c1c(F)cccc1F (centres unmarked) [Compound 10]	–	–	92	85	–
Cc1nn(C)c(C(O)CC(C)C)c1-c1c(F)cccc1F (centres unmarked) [Compound 11]	–	–	98	99	–
C=CCC(C)(C)C(O)c1c(-c2c(F)cccc2F)c(C)nn1C (centres unmarked) [Compound 12]	–	–	83	99	–
CCCCC(CC)C(O)c1c(-c2c(F)cccc2F)c(C)nn1C (centres unmarked) [Compound 13]	–	–	55	96	–
CCCC(O)c1c(-c2c(F)cccc2F)c(C)nn1C (centres unmarked) [Compound 14]	–	–	62	99	–
CCC(C)C(O)c1c(-c2c(F)cccc2F)c(C)nn1C (centres unmarked) [Compound 15]	–	–	100	99	–
CCC(C)C(O)c1c(-c2c(F)cccc2Cl)c(C)nn1C (stereo not drawn) [Compound 19, 4-(2-chloro-6-fluorophenyl)-1,3-dimethyl-α-(1-methylpropyl)-1H-pyrazole-5-methanol]	–	–	–	–	pest or weed control at 40 ppm ([1]; Zymoseptoria tritici, 504 h, 40 ppm test suspension (asterisk), Septoria tritici): 89%; pest or weed control at 40 ppm ([2]; 192 h, 40 ppm test suspension (asterisk), Blumeria graminis f. sp. tritici): 95%
Cc1nn(C)c(C(O)CC(C)C)c1-c1c(F)cccc1Cl (centres unmarked) [Compound 20]	–	–	100	99	–
CCCC(O)c1c(-c2c(F)cccc2Cl)c(C)nn1C (centres unmarked) [Compound 21]	–	–	97	99	–
